Data reported in the supplement of paper PMC8612539.
Converted amounts (≈) assume the structure as drawn.

System: Pasteurella multocida
Experiment: minimum inhibitory concentration (MIC)
Method: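 Broth microdilution MIC (Sensititre BOPO7F bovine plate, CLSI methods) of 19 antimicrobials against field isolates of P. multocida, M. haemolytica, H. somni (deep nasopharyngeal swabs) and E. coli, Enterococcus spp. (rectal swabs) from weaned dairy heifers. Incubation 16-24 h at 35 C. MIC is the lowest concentration preventing visible growth. Values with <= or > lie at the tested range limits. Trimethoprim-sulfamethoxazole is given as the trimethoprim component of a 1:19 mixture.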

COc1cc(Cc2cnc(N)nc2N)cc(OC)c1OC.Cc1cc(NS(=O)(=O)c2ccc(N)cc2)no1 [trimethoprim-sulfamethoxazole]
Conditions	minimum inhibitory concentration [µg/mL]
isolate (source animal id): 10	≤ 2
isolate (source animal id): 11	≤ 2
isolate (source animal id): 12	≤ 2
isolate (source animal id): 19	≤ 2
isolate (source animal id): 23	≤ 2
isolate (source animal id): 26	≤ 2
isolate (source animal id): 30	≤ 2
isolate (source animal id): 34	≤ 2
isolate (source animal id): 36	≤ 2
isolate (source animal id): 37	≤ 2
isolate (source animal id): 46	≤ 2
isolate (source animal id): 48	≤ 2
isolate (source animal id): 49	≤ 2
isolate (source animal id): 54	≤ 2
isolate (source animal id): 55	≤ 2
isolate (source animal id): 58	≤ 2
isolate (source animal id): 60	≤ 2
isolate (source animal id): 61	≤ 2
isolate (source animal id): 63	≤ 2
isolate (source animal id): 64	≤ 2
isolate (source animal id): 65	≤ 2
isolate (source animal id): 66	≤ 2
isolate (source animal id): 67	≤ 2
isolate (source animal id): 69	≤ 2
isolate (source animal id): 73	≤ 2
isolate (source animal id): 75	≤ 2
isolate (source animal id): 76	≤ 2
isolate (source animal id): 77	≤ 2
isolate (source animal id): 78	≤ 2
isolate (source animal id): 80	≤ 2
isolate (source animal id): 82	≤ 2
isolate (source animal id): 83	≤ 2
isolate (source animal id): 88	> 2
isolate (source animal id): 92	≤ 2
isolate (source animal id): 94	≤ 2
isolate (source animal id): 98	≤ 2
isolate (source animal id): 104	≤ 2
isolate (source animal id): 115	> 2
isolate (source animal id): 117	≤ 2
isolate (source animal id): 118	≤ 2
isolate (source animal id): 121	> 2
isolate (source animal id): 124	≤ 2
isolate (source animal id): 125	≤ 2
isolate (source animal id): 128	> 2
isolate (source animal id): 131	≤ 2
isolate (source animal id): 135	> 2
isolate (source animal id): 136	> 2
isolate (source animal id): 140	≤ 2
isolate (source animal id): 144	≤ 2
isolate (source animal id): 146	≤ 2
isolate (source animal id): 150	> 2
isolate (source animal id): 151	> 2
isolate (source animal id): 153	≤ 2
isolate (source animal id): 155	≤ 2
isolate (source animal id): 157	≤ 2
isolate (source animal id): 160	> 2
isolate (source animal id): 164	> 2
isolate (source animal id): 165	> 2
isolate (source animal id): 167	≤ 2
isolate (source animal id): 168	≤ 2
isolate (source animal id): 169	≤ 2
isolate (source animal id): 170	≤ 2
isolate (source animal id): 171	≤ 2
isolate (source animal id): 172	≤ 2
isolate (source animal id): 173	≤ 2
isolate (source animal id): 174	≤ 2
isolate (source animal id): 175	≤ 2
isolate (source animal id): 176	≤ 2
isolate (source animal id): 177	≤ 2
isolate (source animal id): 178	≤ 2
isolate (source animal id): 179	≤ 2
isolate (source animal id): 182	≤ 2
isolate (source animal id): 192	≤ 2
isolate (source animal id): 193	≤ 2
isolate (source animal id): 195	≤ 2
isolate (source animal id): 196	≤ 2
isolate (source animal id): 197	≤ 2
isolate (source animal id): 198	≤ 2
isolate (source animal id): 199	≤ 2
isolate (source animal id): 200	≤ 2
isolate (source animal id): 201	≤ 2
isolate (source animal id): 203	≤ 2
isolate (source animal id): 204	≤ 2
isolate (source animal id): 205	≤ 2
isolate (source animal id): 206	≤ 2
isolate (source animal id): 207	≤ 2
isolate (source animal id): 208	≤ 2
isolate (source animal id): 209	≤ 2
isolate (source animal id): 210	≤ 2
isolate (source animal id): 213	≤ 2
isolate (source animal id): 216	≤ 2
isolate (source animal id): 223	≤ 2
isolate (source animal id): 227	≤ 2
isolate (source animal id): 229	≤ 2
isolate (source animal id): 233	≤ 2
isolate (source animal id): 234	≤ 2
isolate (source animal id): 237	≤ 2
isolate (source animal id): 241	≤ 2
isolate (source animal id): 245	≤ 2
isolate (source animal id): 247	≤ 2
isolate (source animal id): 250	≤ 2
isolate (source animal id): 254	≤ 2
isolate (source animal id): 255	≤ 2
isolate (source animal id): 258	≤ 2
isolate (source animal id): 261	≤ 2
isolate (source animal id): 262	≤ 2
isolate (source animal id): 269	≤ 2
isolate (source animal id): 270	≤ 2
isolate (source animal id): 274	≤ 2
isolate (source animal id): 275	≤ 2
isolate (source animal id): 276	≤ 2
isolate (source animal id): 277	≤ 2
isolate (source animal id): 278	≤ 2
isolate (source animal id): 279	≤ 2
isolate (source animal id): 280	> 2
isolate (source animal id): 284	≤ 2
isolate (source animal id): 285	≤ 2
isolate (source animal id): 287	≤ 2
isolate (source animal id): 290	≤ 2
isolate (source animal id): 294	≤ 2
isolate (source animal id): 295	≤ 2
isolate (source animal id): 296	≤ 2
isolate (source animal id): 307	≤ 2
isolate (source animal id): 310	≤ 2
isolate (source animal id): 311	≤ 2
isolate (source animal id): 312	≤ 2
isolate (source animal id): 313	≤ 2
isolate (source animal id): 315	≤ 2
isolate (source animal id): 316	≤ 2
isolate (source animal id): 318	≤ 2
isolate (source animal id): 319	≤ 2
isolate (source animal id): 320	≤ 2
isolate (source animal id): 321	≤ 2
isolate (source animal id): 322	≤ 2
isolate (source animal id): 324	≤ 2
isolate (source animal id): 325	≤ 2
isolate (source animal id): 328	≤ 2
isolate (source animal id): 330	≤ 2
isolate (source animal id): 331	≤ 2
isolate (source animal id): 333	≤ 2
isolate (source animal id): 336	≤ 2
isolate (source animal id): 337	≤ 2
isolate (source animal id): 339	≤ 2
isolate (source animal id): 340	≤ 2
isolate (source animal id): 341	≤ 2

NC[C@@H]1O[C@H](O[C@H]2[C@@H](O)[C@H](O[C@@H]3[C@@H](O)[C@H](N)C[C@H](N)[C@H]3O[C@H]3O[C@H](CN)[C@@H](O)[C@H](O)[C@H]3N)O[C@@H]2CO)[C@H](N)[C@@H](O)[C@@H]1O [Neomycin]
Conditions	minimum inhibitory concentration [µg/mL]
isolate (source animal id): 10	> 32
isolate (source animal id): 11	> 32
isolate (source animal id): 12	> 32
isolate (source animal id): 19	> 32
isolate (source animal id): 23	> 32
isolate (source animal id): 26	> 32
isolate (source animal id): 98	> 32
isolate (source animal id): 104	> 32
isolate (source animal id): 115	32 (≈ 52.1 µM)
isolate (source animal id): 117	> 32
isolate (source animal id): 118	> 32
isolate (source animal id): 121	> 32
isolate (source animal id): 124	> 32
isolate (source animal id): 125	> 32
isolate (source animal id): 128	> 32
isolate (source animal id): 131	> 32
isolate (source animal id): 135	> 32
isolate (source animal id): 136	> 32
isolate (source animal id): 140	> 32
isolate (source animal id): 144	> 32
isolate (source animal id): 146	> 32
isolate (source animal id): 150	> 32
isolate (source animal id): 151	32 (≈ 52.1 µM)
isolate (source animal id): 153	> 32
isolate (source animal id): 155	> 32
isolate (source animal id): 157	> 32
isolate (source animal id): 160	32 (≈ 52.1 µM)
isolate (source animal id): 164	32 (≈ 52.1 µM)
isolate (source animal id): 165	32 (≈ 52.1 µM)
isolate (source animal id): 167	> 32
isolate (source animal id): 168	> 32
isolate (source animal id): 169	> 32
isolate (source animal id): 170	> 32
isolate (source animal id): 171	> 32
isolate (source animal id): 172	> 32
isolate (source animal id): 173	> 32
isolate (source animal id): 174	> 32
isolate (source animal id): 175	> 32
isolate (source animal id): 176	> 32
isolate (source animal id): 177	16 (≈ 26 µM)
isolate (source animal id): 178	> 32
isolate (source animal id): 179	> 32
isolate (source animal id): 182	> 32
isolate (source animal id): 192	> 32
isolate (source animal id): 193	16 (≈ 26 µM)
isolate (source animal id): 195	32 (≈ 52.1 µM)
isolate (source animal id): 196	8 (≈ 13 µM)
isolate (source animal id): 197	> 32
isolate (source animal id): 198	> 32
isolate (source animal id): 199	> 32
isolate (source animal id): 200	> 32
isolate (source animal id): 201	> 32
isolate (source animal id): 203	32 (≈ 52.1 µM)
isolate (source animal id): 204	> 32
isolate (source animal id): 205	> 32
isolate (source animal id): 206	> 32
isolate (source animal id): 207	> 32
isolate (source animal id): 208	> 32
isolate (source animal id): 209	32 (≈ 52.1 µM)
isolate (source animal id): 210	> 32
isolate (source animal id): 213	> 32
isolate (source animal id): 216	> 32
isolate (source animal id): 223	> 32
isolate (source animal id): 227	> 32
isolate (source animal id): 229	> 32
isolate (source animal id): 233	> 32
isolate (source animal id): 234	> 32
isolate (source animal id): 237	> 32
isolate (source animal id): 241	> 32
isolate (source animal id): 245	> 32
isolate (source animal id): 247	> 32
isolate (source animal id): 250	> 32
isolate (source animal id): 254	> 32
isolate (source animal id): 255	> 32
isolate (source animal id): 258	> 32
isolate (source animal id): 261	> 32
isolate (source animal id): 262	> 32
isolate (source animal id): 269	> 32
isolate (source animal id): 270	> 32
isolate (source animal id): 274	> 32
isolate (source animal id): 275	> 32
isolate (source animal id): 276	> 32
isolate (source animal id): 277	> 32
isolate (source animal id): 278	> 32
isolate (source animal id): 279	> 32
isolate (source animal id): 280	> 32
isolate (source animal id): 284	> 32
isolate (source animal id): 285	> 32
isolate (source animal id): 287	> 32
isolate (source animal id): 290	> 32
isolate (source animal id): 294	> 32
isolate (source animal id): 295	> 32
isolate (source animal id): 296	> 32
isolate (source animal id): 307	> 32
isolate (source animal id): 310	> 32
isolate (source animal id): 311	> 32
isolate (source animal id): 312	> 32
isolate (source animal id): 313	> 32
isolate (source animal id): 315	> 32
isolate (source animal id): 316	> 32
